Data taken from US11472791B2 (Incyte Corporation, priority 2019, dated 2022).

biological target: CDK2/Cyclin E1 (Homo sapiens (Human), UniProt P24941); assay: CDK2/Cyclin E1 HTRF enzyme activity assay; format: biochemical; conditions: 1 mM ATP
Method: Assays are conducted in white 384-well polystyrene plates in a final reaction volume of 8 μL. […] HTRF signals are read after 1 hour at room temperature on a PHERAstar FS plate reader (BMG Labtech). Data is analyzed with IDBS XLFit and GraphPad Prism 5.0 software using a three or four parameter dose response curve to determine IC50 for each compound.

IC50, < 50 nM:
C[C@H]1COCCN1CCCS(=O)(=O)N1CCC(Nc2ncc(C(F)(F)F)c(-c3cnn(CC(C)(C)O)c3)n2)CC1 [Example 71, (S)-2-Methyl-1-(4-(2-((1-((3-(3-methylmorpholino)propyl)sulfonyl)piperidin-4-yl)amino)-5-(trifluoromethyl)pyrimidin-4-yl)-1H-pyrazol-1-yl)propan-2-ol]
C[C@@H]1COCCN1CCCS(=O)(=O)N1CCC(Nc2ncc(C(F)(F)F)c(-c3cnn(CC(C)(C)O)c3)n2)CC1 [Example 72, (R)-2-Methyl-1-(4-(2-((1-((3-(3-methylmorpholino)propyl)sulfonyl)piperidin-4-yl)amino)-5-(trifluoromethyl)pyrimidin-4-yl)-1H-pyrazol-1-yl)propan-2-ol]
CC(C)(O)Cn1cc(-c2nc(NC3CCN(S(=O)(=O)CCCN4CCOCC45CC5)CC3)ncc2C(F)(F)F)cn1 [Example 73, 1-(4-(2-((1-((3-(7-Oxa-4-azaspiro[2.5]octan-4-yl)propyl)sulfonyl)piperidin-4-yl)amino)-5-(trifluoromethyl)pyrimidin-4-yl)-1H-pyrazol-1-yl)-2-methylpropan-2-ol]
COC[C@H]1CCN(CCCS(=O)(=O)N2CCC(Nc3ncc(C(F)(F)F)c(-c4cnn(CC(C)(C)O)c4)n3)CC2)C1 [Example 74, (S)-1-(4-(2-((1-((3-(3-(Methoxymethyl)pyrrolidin-1-yl)propyl)sulfonyl)piperidin-4-yl)amino)-5-(trifluoromethyl)pyrimidin-4-yl)-1H-pyrazol-1-yl)-2-methylpropan-2-ol]
CC(C)(O)Cn1cc(-c2nc(NC3CCN(S(=O)(=O)CCCN4CCC(O)CC4)CC3)ncc2C(F)(F)F)cn1 [Example 75, 1-(3-((4-((4-(1-(2-Hydroxy-2-methylpropyl)-1H-pyrazol-4-yl)-5-(trifluoromethyl)pyrimidin-2-yl)amino)piperidin-1-yl)sulfonyl)propyl)piperidin-4-ol]
CC(C)(O)Cn1cc(-c2nc(NC3CCN(S(=O)(=O)CCCN4CCC(C#N)CC4)CC3)ncc2C(F)(F)F)cn1 [Example 76, 1-(3-((4-((4-(1-(2-Hydroxy-2-methylpropyl)-1H-pyrazol-4-yl)-5-(trifluoromethyl)pyrimidin-2-yl)amino)piperidin-1-yl)sulfonyl)propyl)piperidine-4-carbonitrile]
COC1CCN(CCCS(=O)(=O)N2CCC(Nc3ncc(C(F)(F)F)c(-c4cnn(CC(C)(C)O)c4)n3)CC2)CC1 [Example 77, 1-(4-(2-((1-((3-(4-Methoxypiperidin-1-yl)propyl)sulfonyl)piperidin-4-yl)amino)-5-(trifluoromethyl)pyrimidin-4-yl)-1H-pyrazol-1-yl)-2-methylpropan-2-ol]
CN(C)CCCCS(=O)(=O)N1CCC(Nc2ncc(C(F)(F)F)c(-c3cnn(CC(C)(C)O)c3)n2)CC1 [Example 78, 1-(4-(2-((1-((4-(Dimethylamino)butyl)sulfonyl)piperidin-4-yl)amino)-5-(trifluoromethyl)pyrimidin-4-yl)-1H-pyrazol-1-yl)-2-methylpropan-2-ol]
CCN(CC)CCCCS(=O)(=O)N1CCC(Nc2ncc(C(F)(F)F)c(-c3cnn(CC(C)(C)O)c3)n2)CC1 [Example 79, 1-(4-(2-((1-((4-(Diethylamino)butyl)sulfonyl)piperidin-4-yl)amino)-5-(trifluoromethyl)pyrimidin-4-yl)-1H-pyrazol-1-yl)-2-methylpropan-2-ol]
CC(C)(O)Cn1cc(-c2nc(NC3CCN(S(=O)(=O)CCCCN4CCCC4)CC3)ncc2C(F)(F)F)cn1 [Example 80, 2-Methyl-1-(4-(2-((1-((4-(pyrrolidin-1-yl)butyl)sulfonyl)piperidin-4-yl)amino)-5-(trifluoromethyl)pyrimidin-4-yl)-1H-pyrazol-1-yl)propan-2-ol]
CC(C)(O)Cn1cc(-c2nc(NC3CCN(S(=O)(=O)CCCCN4CCCCC4)CC3)ncc2C(F)(F)F)cn1 [Example 81, 2-Methyl-1-(4-(2-((1-((4-(piperidin-1-yl)butyl)sulfonyl)piperidin-4-yl)amino)-5-(trifluoromethyl)pyrimidin-4-yl)-1H-pyrazol-1-yl)propan-2-ol]
CC(C)(O)Cn1cc(-c2nc(NC3CCN(S(=O)(=O)CCN4CCCC4)CC3)ncc2C(F)(F)F)cn1 [Example 82, 2-Methyl-1-(4-(2-((1-((2-(pyrrolidin-1-yl)ethyl)sulfonyl)piperidin-4-yl)amino)-5-(trifluoromethyl)pyrimidin-4-yl)-1H-pyrazol-1-yl)propan-2-ol]
CN(C)CCS(=O)(=O)N1CCC(Nc2ncc(C(F)(F)F)c(-c3cnn(CC(C)(C)O)c3)n2)CC1 [Example 83, 1-(4-(2-((1-((2-(Dimethylamino)ethyl)sulfonyl)piperidin-4-yl)amino)-5-(trifluoromethyl)pyrimidin-4-yl)-1H-pyrazol-1-yl)-2-methylpropan-2-ol]
CC(C)(O)Cn1cc(-c2nc(NC3CCN(S(=O)(=O)CCN4CCOCC4)CC3)ncc2C(F)(F)F)cn1 [Example 84, 2-Methyl-1-(4-(2-((1-((2-morpholinoethyl)sulfonyl)piperidin-4-yl)amino)-5-(trifluoromethyl)pyrimidin-4-yl)-1H-pyrazol-1-yl)propan-2-ol]
CN1CC(S(=O)(=O)N2CCC(Nc3ncc(C(F)(F)F)c(-c4cnn(CC(C)(C)O)c4)n3)CC2)C1 [Example 85, 2-Methyl-1-(4-(2-((1-((1-methylazetidin-3-yl)sulfonyl)piperidin-4-yl)amino)-5-(trifluoromethyl)pyrimidin-4-yl)-1H-pyrazol-1-yl)propan-2-ol]
CN1CCC(S(=O)(=O)N2CCC(Nc3ncc(C(F)(F)F)c(-c4cnn(CC(C)(C)O)c4)n3)CC2)CC1 [Example 87, 2-Methyl-1-(4-(2-((1-((1-methylpiperidin-4-yl)sulfonyl)piperidin-4-yl)amino)-5-(trifluoromethyl)pyrimidin-4-yl)-1H-pyrazol-1-yl)propan-2-ol]
CC(C)(O)Cn1cc(-c2nc(NC3CCN(S(=O)(=O)CCCO)CC3)ncc2C(F)(F)F)cn1 [Example 92, 3-((4-((4-(1-(2-Hydroxy-2-methylpropyl)-1H-pyrazol-4-yl)-5-(trifluoromethyl)pyrimidin-2-yl)amino)piperidin-1-yl)sulfonyl)propan-1-ol]
CC(C)(O)Cn1cc(-c2nc(NC3CCN(S(=O)(=O)CCCCO)CC3)ncc2C(F)(F)F)cn1 [Example 93, 4-((4-((4-(1-(2-Hydroxy-2-methylpropyl)-1H-pyrazol-4-yl)-5-(trifluoromethyl)pyrimidin-2-yl)amino)piperidin-1-yl)sulfonyl)butan-1-ol]
CC(C)(O)CCS(=O)(=O)N1CCC(Nc2ncc(C(F)(F)F)c(-c3cnn(CC(C)(C)O)c3)n2)CC1 [Example 94, 4-((4-((4-(1-(2-Hydroxy-2-methylpropyl)-1H-pyrazol-4-yl)-5-(trifluoromethyl)pyrimidin-2-yl)amino)piperidin-1-yl)sulfonyl)-2-methylbutan-2-ol]
